Source: US8394858B2, “Cyclohexane derivatives and uses thereof” (Novartis AG, priority 2009, dated 2013)

Target: T1, human acetyl-CoA carboxylase 2 (ACC2) (Homo sapiens, UniProt O00763)
T1 construct: The cDNA encoding amino acids 144 to 2458 of human acetyl-CoA carboxylase 2; made in house; host or cells: Sf9 insect cells (baculovirus, pFastBac1)
Assay: Acetyl-CoA carboxylase enzyme assay (malonyl-CoA formation by LC/MS/MS)
Format: biochemical
Conditions: recombinant human ACC2 (amino acids 144 to 2458), 50 μM acetyl-CoA, 120 μM ATP, 2 mM KHCO3
Text: The cDNA encoding amino acids 144 to 2458 of human acetyl-CoA carboxylase 2 (ACC2, GenBank Accession # NM_001093) was cloned into the SalI and NotI sites of pFastBac1 (Invitrogen; Carlsbad, Calif.). The resulting plasmid was used to generate a recombinant ACC2 baculovirus that was amplified and titered according to the protocols in the Bac-to-Bac baculovirus expression system manual (Invitrogen). The titered virus was used to infect Sf9 cells grown in Ex-Cell 420 serum-free medium (JRH Biosciences; Lenexa, Kans.). At 48 hours post-infection, the cells were harvested and stored at −80° C. until purification. ACC2 was purified using ammonium sulfate precipitation and anion exchange chromatography.
The enzymatic assay was run as follows: 30 μL of reaction buffer (100 mM HEPES pH 7.5, 20 mM MgCl2, 20 mM potassium citrate, 2 mM DTT) was added to a 384-well microtiter plate followed by 2 μL of the test compound (or 100% DMSO control). ACC2 protein (10 μL of a 50 nM working solution) was added to plate, which was incubated at room temperature for 15 minutes. A 30 μL addition of substrate solution (50 μM acetyl-CoA, 120 μM ATP, 2 mM KHCO3) was used to initiate the reactions which were quenched with 6% acetic acid (40 μL). ACC catalyzed malonyl-CoA formation was detected by LC/MS/MS using a Cohesive Technologies LX Series multiplex LC/MS/MS system configured with four binary pumps (Agilent Technologies; Palo Alto, Calif.), a dual arm autosampler (Leap Technologies; Cary, N.C.), and one Quattro Micro triple quadrupole mass spectrometer (Waters, Milford, Mass.), all run by Aria Software version 1.5 (Cohesive Technologies; Franklin, Mass.). Four samples were injected (20 μL) onto four Phenosphere NEXT C18 30×2 mm 5 μm columns (Phenomenex; Torrance, Calif.), eluted by four separate pumps, running identical gradients, through a column switching manifold with the one outlet fitted to the electrospray (ESI) source. Malonyl-CoA was eluted with 5 mM ammonium acetate, pH 4.5 (Buffer A) and 100% acetonitrile (Buffer B) via a step gradient. Argon was used as the collision gas and the following species were monitored via MRM detection: malonyl-CoA (853.8>346.9), internal standard (A: [^13C3]-malonyl-CoA, 857>350). The lower limit of detection is 0.3 uM for malonyl-CoA in this assay.

T1 sequence (O00763 144-2458): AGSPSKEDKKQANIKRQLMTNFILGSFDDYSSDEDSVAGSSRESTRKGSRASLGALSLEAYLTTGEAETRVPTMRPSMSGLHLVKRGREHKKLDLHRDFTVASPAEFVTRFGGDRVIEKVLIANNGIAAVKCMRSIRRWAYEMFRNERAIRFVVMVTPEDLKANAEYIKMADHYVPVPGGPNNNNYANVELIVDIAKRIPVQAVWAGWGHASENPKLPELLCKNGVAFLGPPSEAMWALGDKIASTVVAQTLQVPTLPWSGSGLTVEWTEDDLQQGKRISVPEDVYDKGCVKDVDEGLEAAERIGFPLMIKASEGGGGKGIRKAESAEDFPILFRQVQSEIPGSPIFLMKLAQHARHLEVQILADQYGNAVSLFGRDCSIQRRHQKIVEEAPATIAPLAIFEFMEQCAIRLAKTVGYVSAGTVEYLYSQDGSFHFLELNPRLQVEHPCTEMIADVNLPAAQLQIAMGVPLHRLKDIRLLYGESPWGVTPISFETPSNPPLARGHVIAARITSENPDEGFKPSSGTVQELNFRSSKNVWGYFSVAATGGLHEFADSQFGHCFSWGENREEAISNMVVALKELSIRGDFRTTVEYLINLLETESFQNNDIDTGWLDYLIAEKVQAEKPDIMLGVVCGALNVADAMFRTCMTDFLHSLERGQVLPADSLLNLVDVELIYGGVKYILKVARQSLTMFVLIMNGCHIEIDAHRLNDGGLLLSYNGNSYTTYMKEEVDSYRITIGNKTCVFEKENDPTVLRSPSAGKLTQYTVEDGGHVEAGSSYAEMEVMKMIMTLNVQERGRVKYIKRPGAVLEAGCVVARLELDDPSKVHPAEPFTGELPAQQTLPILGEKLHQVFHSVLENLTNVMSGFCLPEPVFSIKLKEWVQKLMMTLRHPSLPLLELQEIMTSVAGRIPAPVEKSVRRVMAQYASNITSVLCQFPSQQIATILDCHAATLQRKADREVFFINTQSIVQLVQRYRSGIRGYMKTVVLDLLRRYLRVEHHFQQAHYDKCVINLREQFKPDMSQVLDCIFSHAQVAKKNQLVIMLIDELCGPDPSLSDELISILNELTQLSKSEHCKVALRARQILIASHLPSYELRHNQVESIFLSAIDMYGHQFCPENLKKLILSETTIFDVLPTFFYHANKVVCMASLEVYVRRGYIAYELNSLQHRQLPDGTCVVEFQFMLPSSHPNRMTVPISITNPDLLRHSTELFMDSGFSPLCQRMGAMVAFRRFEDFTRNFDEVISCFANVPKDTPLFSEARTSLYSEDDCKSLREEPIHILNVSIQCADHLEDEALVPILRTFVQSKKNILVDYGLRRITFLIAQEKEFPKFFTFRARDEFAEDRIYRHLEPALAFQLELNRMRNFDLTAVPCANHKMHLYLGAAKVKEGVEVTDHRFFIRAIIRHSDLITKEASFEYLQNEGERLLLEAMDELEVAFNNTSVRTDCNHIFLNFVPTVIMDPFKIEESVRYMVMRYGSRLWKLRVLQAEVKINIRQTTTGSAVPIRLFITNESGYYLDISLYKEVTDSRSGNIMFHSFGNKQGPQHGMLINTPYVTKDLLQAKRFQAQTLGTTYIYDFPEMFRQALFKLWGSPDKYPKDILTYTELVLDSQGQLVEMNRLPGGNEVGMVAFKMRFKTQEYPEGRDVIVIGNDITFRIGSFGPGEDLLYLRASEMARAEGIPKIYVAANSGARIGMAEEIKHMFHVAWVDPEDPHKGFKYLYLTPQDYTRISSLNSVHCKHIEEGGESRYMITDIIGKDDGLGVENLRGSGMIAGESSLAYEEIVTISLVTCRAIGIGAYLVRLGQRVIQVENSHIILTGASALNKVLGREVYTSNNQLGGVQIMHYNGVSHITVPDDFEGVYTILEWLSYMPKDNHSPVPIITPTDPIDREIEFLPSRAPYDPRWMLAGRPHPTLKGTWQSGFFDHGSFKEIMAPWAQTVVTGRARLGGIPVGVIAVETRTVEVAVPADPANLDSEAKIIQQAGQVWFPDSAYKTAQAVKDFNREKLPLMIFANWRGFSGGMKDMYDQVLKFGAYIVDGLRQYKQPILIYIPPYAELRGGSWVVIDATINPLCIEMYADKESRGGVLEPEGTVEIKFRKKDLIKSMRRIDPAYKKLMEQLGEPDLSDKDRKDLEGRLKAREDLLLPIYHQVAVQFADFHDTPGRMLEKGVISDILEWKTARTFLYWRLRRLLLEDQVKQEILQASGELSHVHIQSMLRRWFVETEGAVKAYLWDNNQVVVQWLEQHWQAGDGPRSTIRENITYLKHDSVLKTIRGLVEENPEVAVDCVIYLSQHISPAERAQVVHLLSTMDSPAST

| SMILES | IC50 [nM] |
| --- | --- |
| CC(C)(O)[C@@H](NC(=O)[C@H]1CC[C@H](NS(=O)(=O)c2ccc(C(F)(F)F)cc2)CC1)c1ccccc1 [Example 1, (1r,4S)—N—((S)-2-Hydroxy-2-methyl-1-phenylpropyl)-4-(4-(trifluoromethyl)phenylsulfonamido)cyclohexanecarboxamide] | 25 |
| O=C(N[C@@H](c1ccccc1)C(F)(F)F)[C@H]1CC[C@H](NS(=O)(=O)c2ccc(C(F)(F)F)cc2)CC1 [Example 72] | 94 |
| C[C@H](O)[C@@H](NC(=O)[C@H]1CC[C@H](NS(=O)(=O)c2ccc(C(F)(F)F)cc2)CC1)c1ccccc1 [Example 171, (1r,4S)—N-((1S,2R)-2-Hydroxy-1-phenylpropyl)-4-(4-(trifluoromethyl)phenylsulfonamido)cyclohexancarboxamide] | 90 |
| Cc1[nH]cnc1-c1ccc(S(=O)(=O)N[C@H]2CC[C@H](C(=O)N[C@H](C)c3ccc(F)cc3)CC2)cc1 [Example 339] | 25 |
| C[C@@H](NC(=O)[C@H]1CC[C@H](NS(=O)(=O)c2ccc(-c3ccc(CN4CCOCC4)cc3)cc2)CC1)c1ccc(F)cc1 [Example 359] | 52 |
| C[C@@H](NC(=O)[C@H]1CC[C@H](NS(=O)(=O)c2ccc(-c3ccc(CNCC(=O)O)cc3)cc2)CC1)c1ccc(F)cc1 [Example 370] | 10 |
| C[C@@H](NC(=O)[C@H]1CC[C@H](NS(=O)(=O)c2ccc(-c3ccc(CCN)cc3)cc2)CC1)c1ccc(F)cc1 [Example 378] | 10 |
| C[C@@H](NC(=O)[C@H]1CC[C@H](NS(=O)(=O)c2ccc(-c3ccc(OCCN4CCOCC4)cc3)cc2)CC1)c1ccc(F)cc1 [Example 385] | 10 |
| CC(C)(O)[C@@H](NC(=O)[C@H]1CC[C@H](NS(=O)(=O)c2ccc(-c3ccccc3)cc2)CC1)c1ccccc1 [Example 395] | 10 |
| O=C(O)CCc1ccc(-c2ccc(S(=O)(=O)N[C@H]3CC[C@H](C(=O)N4CCC[C@@H]4c4ccc(F)cc4)CC3)cc2)cc1 [Example 410] | 90 |
| O=C(O)CCc1ccc(-c2ccc(S(=O)(=O)N[C@H]3CC[C@H](C(=O)N4CCN(c5ccccn5)CC4c4ccccc4)CC3)cc2)cc1 (some centres unmarked) [Example 414] | 10 |
| O=C(O)CCc1ccc(-c2ccc(S(=O)(=O)N[C@H]3CC[C@H](C(=O)N4CCOC[C@@H]4c4ccccc4)CC3)cc2)cc1 [Example 419] | 25 |
| O=C1CN(C(=O)[C@H]2CC[C@H](NS(=O)(=O)c3ccc(-c4ccccc4)cc3)CC2)C(c2ccccc2)CN1 (some centres unmarked) [Example 428] | 770 |
| CC(C)(O)[C@@H](NC(=O)[C@]1(C)CC[C@@H](NS(=O)(=O)c2ccc(C(F)(F)F)cc2)CC1)c1ccccc1 [Example 448, (1r,4S)—N—((S)-2-Hydroxy-2-methyl-1-phenylpropyl)-1-methyl-4-(4-(trifluoromethyl)phenylsulfonamido)cyclohexanecarboxamide] | 40 |
